Values joined by “and” are separate entries in the source; they are usually repeats but may differ in a detail not shown here. Equal entries are not always repeated. Where two headings read alike, the source gives them in different places.
Tests used:
[1] = target: hPIV-3 HN neuraminidase function (Human parainfluenza 3 virus, UniProt P08492); experiment: biochemical; design: species or system human parainfluenza virus type 3 (hPIV-3, strain C-243); settings: for IC50: NI IC50, purified hPIV-3, MUN substrate, pH 4.6, means of 3 independent experiments
Chain of hPIV-3 HN neuraminidase function (P08492 whole entry): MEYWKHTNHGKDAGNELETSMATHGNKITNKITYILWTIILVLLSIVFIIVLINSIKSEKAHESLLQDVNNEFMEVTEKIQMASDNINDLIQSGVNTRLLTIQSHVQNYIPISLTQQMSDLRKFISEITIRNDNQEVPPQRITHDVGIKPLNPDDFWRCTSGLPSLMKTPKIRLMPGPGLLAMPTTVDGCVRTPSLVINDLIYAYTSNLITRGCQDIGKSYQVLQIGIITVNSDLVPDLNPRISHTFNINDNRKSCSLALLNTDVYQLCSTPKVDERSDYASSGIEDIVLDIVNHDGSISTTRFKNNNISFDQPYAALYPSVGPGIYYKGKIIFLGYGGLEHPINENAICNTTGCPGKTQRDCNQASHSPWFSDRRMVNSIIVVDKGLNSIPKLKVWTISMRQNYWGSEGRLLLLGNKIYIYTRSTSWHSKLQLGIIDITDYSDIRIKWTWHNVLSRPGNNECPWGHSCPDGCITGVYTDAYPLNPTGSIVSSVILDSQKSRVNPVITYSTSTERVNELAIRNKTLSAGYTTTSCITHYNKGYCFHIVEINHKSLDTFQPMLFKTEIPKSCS

[2] = target: hPIV-3 HN haemagglutinin function (Human parainfluenza 3 virus, UniProt P08492); experiment: cell-based; design: species or system human parainfluenza virus type 3 (hPIV-3); settings: HI IC50, human red blood cells, 4 °C, 90 min
Chain of hPIV-3 HN haemagglutinin function (P08492 whole entry): as above
Protocol: The HN inhibitors were assessed in haemagglutination inhibition assays using human red blood cells (RBC) as previously described[10] with minor modifications. The lowest final concentration of hPIV-3 that leads to a complete agglutination of human-RBC at 4 °C is considered as 1 HAU. 4 haemagglutination units (HAU) of hPIV-3 (final 1 HAU per well) were pre-mixed with inhibitors of each tested concentration (4X dilution in PBS) on ice. Next, an equivalent volume of ice-cold 1% human-RBC in PBS was added to each well of the inhibitor/virus pre-mixture and the plate was then incubated for 90 min at 4 °C before determining the extent of haemagglutination inhibition.

[3] = target: T1, human neuraminidase 2 (hNeu2) (Homo sapiens, UniProt Q9Y3R4); experiment: NI assay with recombinant human neuraminidase 2; type: biochemical; settings: inhibitors tested 0.001 μM to 1000 μM, 0.5 mM MUN, pH 5.5
T1 construct: GST (own knowledge: pGEX-2T encodes an N-terminal GST with a thrombin site); made in house; host or cells: E. coli
T1 sequence (Q9Y3R4 whole entry): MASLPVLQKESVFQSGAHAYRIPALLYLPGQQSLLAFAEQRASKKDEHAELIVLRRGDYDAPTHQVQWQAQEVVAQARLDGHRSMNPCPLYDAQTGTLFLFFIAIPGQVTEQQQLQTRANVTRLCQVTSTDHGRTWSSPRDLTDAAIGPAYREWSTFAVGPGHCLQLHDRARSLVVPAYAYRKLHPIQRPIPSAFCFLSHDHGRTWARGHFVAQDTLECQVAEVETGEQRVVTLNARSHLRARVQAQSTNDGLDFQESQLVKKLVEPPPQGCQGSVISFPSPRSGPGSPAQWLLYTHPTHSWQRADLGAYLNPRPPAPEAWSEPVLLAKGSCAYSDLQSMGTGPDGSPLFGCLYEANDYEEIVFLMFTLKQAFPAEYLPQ
Protocol: Finally, all inhibitors were assessed for cytotoxicity to human A549 cells with no toxicity observed at a concentration of 300 µM (data not shown). In addition, we investigated[9] the capacity of the synthesized inhibitors 5–8 to inhibit human neuraminidase 2 (hNeu2) compared with the well-described neuraminidase inhibitor Neu5Ac2en (2)[28].
The NI assay with human Neuraminidase 2 (hNeu2) was performed as previously described, using 60 ng of purified hNeu2 enzyme in reaction buffer/hNeu2 (NaOAc 50 mM, pH 5.5), supplemented with 10 μg BSA and 0.5 mM MUN per reaction. All inhibitors were tested in duplicate in the concentration range from 0.001 μM to 1000 μM. After 10 min of incubation with agitation (1000 rpm) at 37 °C, the enzymatic reaction was stopped with glycine buffer (glycine 0.25 M, pH 10.4) and the product fluorescence was measured in relative fluorescence units (RFU) using a Victor 3 multilabel reader (PerkinElmer, Waltham, MA). Controls were conducted with MUN and purified hNeu2, the enzymatic reaction was stopped at t = 0 for the negative control and at t = 10 min for the positive control.
The obtained data were normalised by background (negative control RFU) subtraction and processed data were analyzed with GraphPadPrism 4 (GraphPad Software Inc., La Jolla, CA) to calculate IC50 values. The concentration of inhibitor that reduced the neuraminidase activity by 50% compared to those of a non-treated virus/protein suspension was considered as the NI IC50 value.

hPIV-3 = experiment: Virus growth inhibition by in situ ELISA in A549 cells
soluble hPIV-3 HN = target: soluble hPIV-3 HN; design: method as in PMID 23740997; settings: in complex with soluble hPIV-3 HN; cited from earlier work
[4] = Human respirovirus 3, A549, in Homo sapiens, read-out: Virus growth inhibition IC50, in situ ELISA, human cell line A549, 36–40 h
[5] = read-out: Virus growth inhibition IC50, in situ ELISA, human cell line A549, 36–40 h

| Molecule | IC50 [1] | IC50 [2] | Inhibition of hNeu2 [3] | IC50 (hPIV-3; [4]) [µM] | IC50 (hPIV-3; [5]) [µM] | increase in potency (NI) compared to Neu2en analogue 6 ([1]; NI IC50 of 8 versus 6) [fold] | Kd (soluble hPIV-3 HN) [µM] |
| --- | --- | --- | --- | --- | --- | --- | --- |
| COCc1cn([C@H]2C=C(C(=O)O)O[C@@H]([C@H](O)[C@H](O)CO)[C@@H]2NC(=O)C(C)C)nn1 [Inhibitor 6, reference compound] | 14.5 µM | 3.88 µM and 3.9 µM | No inhibition | 82.4 ± 7.7 | 82.4 | – | – |
| COCc1cn([C@@H]2[C@@H](NC(=O)C(C)C)[C@H]([C@H](O)[C@H](O)CO)O[C@@](F)(C(=O)O)[C@H]2F)nn1 [Inhibitor 8] | 6.7 µM and 6.75 µM | 57 µM | No inhibition | 14.3 ± 0.3 | 14.3 | 2 | – |
| Neu5Acα2–3 Galβ1–4GlcNAcβ1–3 Galβ1–4GlcNAc [3′SiaDiLN] | – | – | – | – | – | – | 4300 |
| CC(C)C(=O)N[C@H]1[C@H]([C@H](O)[C@H](O)CO)OC(C(=O)O)=C[C@@H]1n1cc(-c2ccccc2)nn1 [Inhibitor 5, reference compound] | – | – | No inhibition | 11.2 ± 0.9 | 11.2 | – | – |
| CC(C)C(=O)N[C@H]1[C@H]([C@H](O)[C@H](O)CO)O[C@@](F)(C(=O)O)[C@@H](F)[C@@H]1n1cc(-c2ccccc2)nn1 [Inhibitor 7] | 55.3 µM | 775 µM | No inhibition | 40.1 ± 7 | 40.1 | – | – |

Source: paper PMC5495814, “The impact of the butterfly effect on human parainfluenza virus haemagglutinin-neuraminidase inhibitor design” (Scientific Reports, 2017)
